Experimental data: ChEMBL document CHEMBL1201862, “PubChem BioAssay data set” (2004)
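Growth conditions: 96-well plates. Treatment: test compound, 48 hours, 5 concentrations. Analysis: linear interpolation between bracketing concentrations; unreached endpoints set to highest concentration. The concentration for 50% growth inhibition is given as GI50.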 Activity calls are given as the source filed them. Cut-off read from the data, not from the text of the source: active = GI50 up to about 1.1 µM and inactive = higher.

Key:
Test in all cases: NCI-60 cell line screen, 48 h
A549 = tested on: A549
ACHN = tested on: ACHN
DLD-1 = tested on: DLD-1
HCT-116 = tested on: HCT-116
IGROV-1 = tested on: IGROV-1
KM-20L2 = tested on: KM-20L2
NCI-H226 = tested on: NCI-H226
OVCAR-5 = tested on: OVCAR-5
SF-268 = tested on: SF-268
SK-MEL-28 = tested on: SK-MEL-28
SN12C = tested on: SN12C
TK-10 = tested on: TK-10
UACC-257 = tested on: UACC-257
UO-31 = tested on: UO-31
CCRF-CEM = tested on: CCRF-CEM
SK-OV-3 = tested on: SK-OV-3
HL-60 = tested on: HL-60

Measured: GI50

CCOC(=O)[C@H]1Nc2ccc(O)cc2C2c3ccccc3CC21 (stereo partly drawn)
inactive: A549 65.3 µM | ACHN 51.4 µM | DLD-1 70.8 µM | HCT-116 68.1 µM | IGROV-1 > 100 µM | KM-20L2 > 100 µM | NCI-H226 > 100 µM | OVCAR-5 > 100 µM | SF-268 > 100 µM | SK-MEL-28 34.8 µM | SN12C 87.1 µM | TK-10 > 100 µM | UACC-257 37.7 µM | UO-31 98.2 µM

Cc1ccc(S(=O)(=O)C2CC2(Cl)Cl)cc1 (stereo not drawn)
inactive: A549 > 100 µM | ACHN 25.6 µM | CCRF-CEM 11.1 µM | DLD-1 24.2 µM | HCT-116 20.4 µM | IGROV-1 26.9 µM | KM-20L2 > 100 µM | NCI-H226 > 100 µM | OVCAR-5 > 100 µM | SF-268 34 µM | SK-MEL-28 53.1 µM | SK-OV-3 > 100 µM | SN12C 18.7 µM | TK-10 > 100 µM | UACC-257 21.2 µM | UO-31 22 µM

N#CC1=C(c2ccccc2)OC2(N)OC(c3ccccc3)=C(C#N)C12C#N (stereo not drawn)
inactive: A549 > 100 µM | ACHN > 100 µM | CCRF-CEM 56.1 µM | DLD-1 > 100 µM | IGROV-1 > 100 µM | KM-20L2 > 100 µM | OVCAR-5 > 100 µM | SF-268 > 100 µM | SK-MEL-28 > 100 µM | SK-OV-3 > 100 µM | SN12C > 100 µM | TK-10 > 100 µM | UACC-257 > 100 µM | UO-31 31.5 µM

O=c1[nH]cc(F)c(=O)n1C1OC(CO)C(O)C1O (stereo not drawn)
inactive: A549 > 100 µM | ACHN > 100 µM | CCRF-CEM > 100 µM | DLD-1 > 100 µM | HL-60 > 100 µM | KM-20L2 > 100 µM | NCI-H226 > 100 µM | OVCAR-5 > 100 µM | SF-268 > 100 µM | SK-MEL-28 > 100 µM | SK-OV-3 > 100 µM | SN12C > 100 µM | TK-10 > 100 µM | UACC-257 > 100 µM | UO-31 > 100 µM

O=C(O)/C(Cl)=C(\Cl)Nc1cccc(C(F)(F)F)c1
inactive: A549 > 100 µM | ACHN > 100 µM | CCRF-CEM > 100 µM | DLD-1 > 100 µM | HL-60 39.5 µM | IGROV-1 > 100 µM | KM-20L2 > 100 µM | SF-268 > 100 µM | SK-MEL-28 > 100 µM | SK-OV-3 > 100 µM | SN12C > 100 µM | TK-10 > 100 µM | UO-31 > 100 µM

CCCC(S(=O)(=O)c1ccccc1)S(=O)(=O)c1ccccc1
inactive: A549 > 100 µM | ACHN > 100 µM | CCRF-CEM > 100 µM | DLD-1 > 100 µM | HCT-116 > 100 µM | HL-60 > 100 µM | IGROV-1 > 100 µM | KM-20L2 > 100 µM | NCI-H226 86.7 µM | OVCAR-5 > 100 µM | SK-MEL-28 > 100 µM | SK-OV-3 > 100 µM | TK-10 > 100 µM | UACC-257 > 100 µM | UO-31 > 100 µM

Nc1nc2c(ncn2CCCC(c2ccccc2)P(=O)(O)O)c(=O)[nH]1 (stereo not drawn)
inactive: A549 > 100 µM | ACHN > 100 µM | CCRF-CEM > 100 µM | DLD-1 > 100 µM | HCT-116 > 100 µM | HL-60 > 100 µM | IGROV-1 > 100 µM | KM-20L2 > 100 µM | OVCAR-5 > 100 µM | SF-268 > 100 µM | SK-MEL-28 > 100 µM | SK-OV-3 > 100 µM | SN12C > 100 µM | TK-10 > 100 µM | UACC-257 > 100 µM | UO-31 > 100 µM
